Laboratory results from US11092549B2, “Fluorescent probes for drug permeability in gram negative bacteria” (Saint Louis University, priority 2018, dated 2021).
≈ marks a conversion by molar mass, not a printed value.

What was measured:
[1] = tested on: E. coli strains BW25113, ΔEfflux, WT-Pore and ΔEfflux-Pore; assay: Fluorescence-based intracellular uptake of compounds in efflux-proficient, efflux-deficient and hyperporinated cells (FIG. 3); conditions: when the cell envelope is compromised, excitation 335 nm
Experimental: For Hoechst or compound uptake experiments, overnight grown cells will be re-inoculated into 30 ml LB broth and grown until OD600 of 1. The cells will then pelleted by centrifugation for 15 min at room temperature and washed once in HMG buffer. The pellet will be resuspended in HMG buffer to OD600 of 2.0 and kept at room temperature during the course of the experiment. For the efflux inhibition or uptake kinetics, 100 μl of Hoechst or compound solution in HMG buffer with and without increasing concentrations of inhibitors at twice the concentrations indicated will be added into a black F-bottom non-binding 96-well plate. Fluorescence of Hoechst or compounds will be followed at λex=355 nm and λem=450 nm. To this, 100 μl of cells at OD600 of 2.0 was injected, shaken for 6 sec and the fluorescence of Hoechst will be monitored continuously for up to 10 min.
The inventors will use a fluorescence-based assay in which a fluorescent probe, a substrate of efflux pumps, reports EPI activities. Exponentially grown cells will be transferred into a defined medium, dispensed into 96-well plates with increasing concentrations of EPIs, and incubated for a pre-determined time. The probe will be added to cells and fluorescence recorded at different time points. Compounds with efflux inhibiting activities will increase the uptake of the probe and as a result increase the probe fluorescence (FIG. 3) (Abdali et al., 2017). The reverse kinetic curves, in which the concentration of the compound is fixed while the probe concentration varies, will be also collected. Detailed quantification of the kinetic data will be performed using two probes: a DNA dye Hoechst 33342 (HT) (Eicher et al., 2012; Nakashima et al., 2011 and Richmond et al., 2013) and a novel SLU-417 probe that were synthesized during a focused synthetic effort (Haynes et al., 2017). HT is a topoisomerase inhibitor with the MIC 2 μM in Δ6-Pore cells. In contrast, SLU-417 is relatively inert with MIC≥50 μM, which should reduce possible non-specific effect during drug uptake measurements.
Experiments were carried out in four E. coli strains, BW25113, a wild type strain with efflux pumps, ΔEfflux, a cell line in which the efflux pumps have been inactivated by removal of tolC gene and their hyperporinated variants WT-Pore and ΔEfflux-Pore. Four compounds were tested in these cell lines which show increased fluorescence intensity in cells in which the efflux pumps have been removed (FIG. 3).

Δ6-Pore cells = assay: Minimal inhibitory concentration (MIC) of fluorescent probes; type: cell-based, P. aeruginosa
Description: For assessing antibacterial activities, compounds will be analyzed against four strains of P. aeruginosa: WT and ΔEfflux (lacking mexAB-OprM, mexCD-OprJ, mexXY), and their hyperporinated variants WT-Pore and ΔEfflux-Pore (FIGS. 2A-C) (Krishnamoorthy et al., 2016 and Krishnamoorthy et al., 2017). Based on minimal inhibitory concentrations (MIC) and growth IC50, compounds will be grouped as affected by efflux or by OM barriers. […] The inventors expect that at least 50% of the compounds in the library will have antibacterial activities in the hyperporinated efflux-deficient ΔEfflux-Pore. The -fold changes in MICs in the four strains will be used to guide selection of the compounds for detailed studies.
The inventors will use a fluorescence-based assay in which a fluorescent probe, a substrate of efflux pumps, reports EPI activities. Exponentially grown cells will be transferred into a defined medium, dispensed into 96-well plates with increasing concentrations of EPIs, and incubated for a pre-determined time. The probe will be added to cells and fluorescence recorded at different time points. Compounds with efflux inhibiting activities will increase the uptake of the probe and as a result increase the probe fluorescence (FIG. 3) (Abdali et al., 2017). […]

[2] = tested on: E. coli BW25113 and P. aeruginosa PAO1; assay: Screen of NCI Diversity sets for antibacterial and EPI activities, with profiling of actives; type: cell-based
Description: The inventors screened NCI Diversity sets in E. coli BW25113 and P. aeruginosa PAO1 for antibacterial and EPI activities. From ˜2,000 compounds tested, the inventors identified 34 active compounds (Abdali et al., 2017). […] Synthetic procedures for modifying NSC 60339 has been described before (Abdali et al., 2017 and Gamage et al., 2013). Because clinically-important antibiotics are extensively optimized, the inventors have chosen to focus on fluoroquinolones, tetracyclines, oxazolidinones, phenicols and macrolides/ketolides representatives that are known to penetrate through both the LPS-phospholipid bilayer and porins of the OM and include both broad and narrow spectrum antibiotics.

| Compound | intracellular uptake [1] | further results |
| --- | --- | --- |
| O=C(Nc1ccc(C2=NCCN2)cc1)c1cc2cc(Cl)ccc2o1 [SLU-843] | increases |  |
| COc1ccc(/C=C/C(=O)Nc2ccc(C3=NCCN3)cc2)cc1 [SLU-448] | increases |  |
| CC(C)c1ccc(/C=C/C(=O)Nc2ccc(C3=NCCN3)cc2)cc1 [SLU-417] | increases | MIC (Δ6-Pore cells; Pseudomonas aeruginosa): ≥ 50 µM |
| O=C(Nc1ccc(C2=NCCN2)cc1)c1ccc(-c2cc(Cl)cc(Cl)c2)s1 [SLU-446] | increases |  |
| O=C(Nc1ccc(C2=NCCN2)cc1)c1ccc(C(=O)Nc2ccc(C3=NCCN3)cc2)c(Cl)c1 [NSC 60339] |  | antibacterial and anti-MFP (Membrane Fusion Protein) activities [2]: have both antibacterial and anti-MFP; substrate of efflux pumps [2]: modest substrate of efflux pumps |
| CCOc1ccc(-c2nc3ccc(-c4nc5ccc(N6CCN(C)CC6)cc5[nH]4)cc3[nH]2)cc1 [HT, Hoechst 33342, reference compound] |  | MIC (Δ6-Pore cells; Δ6-Pore cells): 2 µM (≈ 0.905 µg/mL) |
